These results are taken from ChEMBL document CHEMBL4020775, “QSAR studies of the bioactivity of hepatitis C virus (HCV) NS3/4A protease inhibitors by multiple linear regression (MLR) and support vector machine (SVM)” (Bioorg Med Chem Lett, 2017).

Test [1] can be described thus: Inhibition of HCV NS3/4A protease using AcDTEDVVP(Nva)-O-PAP as substrate pretreated with substrate for 3 mins followed by enzyme addition measured after 60 mins by spectrophotometric method. More on the design: species or system Hepacivirus hominis.
The nature of test [2]: Inhibition of HCV NS3/4A protease. More on the design: species or system Hepacivirus hominis.

Turning to `CC(C)(C)NC(=O)N[C@H](C(=O)N1C[C@H]2[C@@H]([C@H]1C(=O)NC(CC1CCC1)C(=O)C(N)=O)C2(C)C)C(C)(C)C` (some centres undefined) [BOCEPREVIR], in test [1], the Ki (as a rule, a dissociation constant, usually derived from enzyme kinetics or from competition with a known ligand) was 14 nM.
Turning to `Cc1cnc(C(=O)N[C@H]2CCCCC/C=C\[C@@H]3C[C@@]3(C(=O)NS(=O)(=O)C3CC3)NC(=O)[C@@H]3C[C@@H](Oc4nc5ccccc5c5ccccc45)CN3C2=O)cn1` [PARITAPREVIR], the IC50 (commonly the point on the concentration scale where inhibition reaches its midpoint) in test [2] was 0.18 nM.
The same measure, in the same setting: the value for `C=C[C@@H]1C[C@]1(NC(=O)[C@@H]1C[C@@H](Oc2ncc(OC)c3ccc(Cl)cc23)CN1C(=O)[C@@H](NC(=O)OC(C)(C)C)C(C)(C)C)C(=O)NS(=O)(=O)C1CC1` [ASUNAPREVIR] was 2.6 nM; that for `CCC[C@H](NC(=O)[C@@H]1[C@H]2CCC[C@H]2CN1C(=O)[C@@H](NC(=O)[C@@H](NC(=O)c1cnccn1)C1CCCCC1)C(C)(C)C)C(=O)C(=O)NC1CC1` [TELAPREVIR] was 1030 nM.
